Measurements reported in paper PMC7235871, “Excretion of the Polymyxin Derivative NAB739 in Murine Urine” (Antibiotics, 2020).
Positions of bridges follow the written chain, without caps; N, C: chain ends. Non-standard residues stand in square brackets, D forms with d. Residues, ends and D or L forms follow the SMILES beside them. *: point of attachment. Octanoyl = CCCCCCCC(=O)*; Dab = NCC[C@H](N)C(=O)O

How the values were obtained:
[1] = Plasma concentrations (PK) in NMRI mice after SC administration; assay type: in vivo
Description: (§1) NMRI female mice (10–12 weeks old, 29–32 g, n = 64) were obtained from ENVIGO (The Netherlands) and housed prior to treatment under standard conditions (acclimatization period of 1 week, 21–23 °C, 12-h light/dark cycle, relative humidity 45%–65%) with unlimited access to food (R70 diet from Lantmännen) and water. The experimental procedures were performed in accordance with the guidelines of the European Community and local laws and policies (Directive 2010/63/EU), and all of the procedures were approved by Food and Veterinary Service, Riga, Latvia. Studies involving animals are reported in accordance with the ARRIVE guidelines. Animals were weighed on the day of the treatment (before treatment) to calculate the required amount of compound for the corresponding dose. For PK and excretion studies the mice were dosed subcutaneously (SC) via a bolus injection (injection volume 10 mL/kg). Four consecutive doses were administrated twice a day at 9:00 AM and 15:00 PM over the course of two days.
Blood samples were collected in tubes containing heparin. Blood was sampled from tail vein 15, 30, and 45 min after the first and last administrations of the compounds. Tubes were centrifuged at +4 °C 10,000× g for 3 min. Plasma samples were collected and stored at −20 °C until analysis.
(§2) Plasma and urine sample analyses were performed using the quantitative UPLC/MS/MS method. Calibration standards and quality control samples for plasma analysis were prepared by spiking blank mouse plasma (CD-1, anticoagulant Na Heparin, Innovative Research, USA) with a stock solution of analyte to achieve a nominal concentration ranging from 0.01 to 50 μg/mL for NAB739 and PMB. Calibration standards and quality control samples for urine analysis were prepared by spiking blank mouse urine (mouse CD-1 urine, Sera Laboratories International Ltd., UK) with a stock solution of analytes to achieve a nominal concentration from 0.04 to 30 μg/mL for NAB739 and PMB.
(§3) A sample volume of 20 μL (calibration standards, quality controls or analytical samples in plasma or urine) was transferred into the plastic tube and mixed with 100 μL of 1% formic acid solution in acetonitrile/methanol (3:1, v/v) mixture to precipitate proteins. The tubes were vortex- mixed and centrifuged at 10,000 rpm for 10 min. Then, 100 μL of supernatant was diluted with 400 μL of water and subjected to UPLC/MS analysis as follows:
(§4) UPLC system Acquity H-class (Waters) connected with triple quadrupole mass spectrometer Xevo TQ-S (Waters). UPLC conditions: Column—Acquity BEH C18 (2.1 × 50 mm, 1.7 µm); Mobile phase—A: 0.1% Formic acid aqueous solution, B: Acetonitrile; Gradient: Initial—90%A, 2.5 min—5% A, 4.0 min—5% A, 4.5 min—90% A, 6 min—90% A; Flow—0.3 mL/min; Column temperature—40 °C; Injection volume—1 μL (NAB739) or 5 μL (PMB). MS conditions: Ionization—ESI positive mode; Capillary voltage—1.0 kV; ESI source temperature—120 °C; Desolvation gas (N2) flow—800 L/h; Desolvation temperature—600 °C.

[2] = cynomolgus monkey, in vivo; cited from earlier work
E. coli = conditions: murine E. coli pyelonephritis, cited from earlier work; for Half maximal effective dose (ED50) in kidneys: bacterial burden in kidneys
[3] = Urinary elimination in NMRI mice after SC administration (pooled 0–3 h urine); assay type: in vivo
Description: as §1
For PK study, before the administration of the compound, mice voiding was stimulated. Then compound was administrated SC. Mice were put in separate cages with LabSand (USA) and urine was collected during the next 3 h. At the end of each 1-h period voiding was stimulated by gentle massage of the belly. Urine samples from each mouse were pooled in one tube. Urine volume was determined by weighing of the pooled urine sample.
as §2, §3, §4

[4] = cynomolgus monkey, in vivo; cited from earlier work; remark: listed apart in the source
[5] = Observation of adverse effects during administration in mice; assay type: in vivo, NMRI mice; conditions: SC, doses 0.25, 0.5, 1, 2 and 4 mg/kg, single and four-times-repeated
Description: as §1

[6] = parameters: method as in PMID 18840079; conditions: patients; cited from earlier work

CCCCCCCC(=O)N[C@H](C(=O)N[C@H](CO)C(=O)N[C@H]1CCNC(=O)[C@H]([C@@H](C)O)NC(=O)[C@H](CCN)NC(=O)[C@H](CCN)NC(=O)[C@H](CC(C)C)NC(=O)[C@@H](Cc2ccccc2)NC(=O)[C@H](CCN)NC1=O)[C@@H](C)O [NAB739] (Octanoyl-T[dS][Dab][Dab][dF]L[Dab][Dab]T; lactam 3-C; N-terminus assumed)
Plasma concentration ([1]; female, NMRI, mouse, in vivo, sc, 0.5 mg/kg): exceeded 1 µg/mL
Linearity of Cmax and dose–response relationship, correlation coefficient ([1]; mouse, in vivo, sc): 0.9987
Excretion in urine [2]: excreted in the cynomolgus urine at a very significant extent
Half maximal effective dose (ED50) in kidneys (E. coli): 0.24 mg/kg
Fold lower dose than PMB reducing bacterial burden in kidney, urine and bladder (E. coli): approximately 10 fold
Urinary concentration ([3]; female, NMRI, mouse, in vivo, sc, 4 mg/kg): above 35 µg/mL
Relative elimination by urine higher after the last dose than after the first dose, average ([3]; mouse, in vivo): 26%
Urine concentration higher after the last dose compared to the first dose, average ([3]; mouse, in vivo): 27%
Detection in urine samples ([3]; mouse, in vivo, sc, 4 mg/kg): found in all pooled (0–3 h) urine samples
Nephrotoxicity compared to PMB [4]: less nephrotoxic

polymyxin B [PMB, reference compound]
Adverse effects during administration [5]: no adverse effects were observed
Plasma concentrations after the first versus the last administration ([1]; SC, four doses): similar
Time at which Cmax was observed after administration ([1]; plasma, SC, all doses 0.25–4 mg/kg): 30 min
Linearity of Cmax and dose–response relationship, correlation coefficient ([1]; plasma, first SC administration, doses 0.25–4 mg/kg): 0.975
Part of dose excreted in urine [6]: less than 1%
Half maximal effective dose (ED50) in kidneys (E. coli): 2.1 mg/kg
Detection in urine samples ([3]; SC dose of 4 mg/kg, pooled 0–3 h urine): not detected
Detection in urine ([3]; after the fourth SC dose at 4 mg/kg, detection limit 0.6 µg/mL): not found
